Here are results for seven molecules from paper doi:10.1101/442434v2 (biorxiv, 2018).

The target in data set [1] is T1, AtG6PDH2 (Arabidopsis thaliana, UniProt Q9FY99).
T1 sequence (Q9FY99 1-596 limits assumed): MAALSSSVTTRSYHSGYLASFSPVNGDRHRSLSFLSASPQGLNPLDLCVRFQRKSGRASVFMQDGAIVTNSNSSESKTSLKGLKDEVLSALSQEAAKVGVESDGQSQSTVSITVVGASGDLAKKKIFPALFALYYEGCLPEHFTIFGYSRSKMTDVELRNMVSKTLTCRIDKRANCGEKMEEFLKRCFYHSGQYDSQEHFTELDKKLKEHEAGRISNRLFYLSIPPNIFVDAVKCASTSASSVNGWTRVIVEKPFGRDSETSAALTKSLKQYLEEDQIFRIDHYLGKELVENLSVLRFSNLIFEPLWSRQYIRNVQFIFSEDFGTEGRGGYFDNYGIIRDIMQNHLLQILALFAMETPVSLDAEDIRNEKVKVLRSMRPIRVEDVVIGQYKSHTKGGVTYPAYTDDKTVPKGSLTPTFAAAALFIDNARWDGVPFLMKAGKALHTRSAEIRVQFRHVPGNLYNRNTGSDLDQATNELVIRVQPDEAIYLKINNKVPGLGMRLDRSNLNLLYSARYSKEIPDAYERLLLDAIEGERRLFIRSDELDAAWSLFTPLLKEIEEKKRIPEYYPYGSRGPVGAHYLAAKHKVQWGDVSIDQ
The data set can be described thus: spectrophotometric NADPH formation assay. Type of data set: biochemical.

For data set [2], the target named is T2, AtG6PDH3 (Arabidopsis thaliana, UniProt Q8L743).
T2 sequence (Q8L743 1-599 limits assumed): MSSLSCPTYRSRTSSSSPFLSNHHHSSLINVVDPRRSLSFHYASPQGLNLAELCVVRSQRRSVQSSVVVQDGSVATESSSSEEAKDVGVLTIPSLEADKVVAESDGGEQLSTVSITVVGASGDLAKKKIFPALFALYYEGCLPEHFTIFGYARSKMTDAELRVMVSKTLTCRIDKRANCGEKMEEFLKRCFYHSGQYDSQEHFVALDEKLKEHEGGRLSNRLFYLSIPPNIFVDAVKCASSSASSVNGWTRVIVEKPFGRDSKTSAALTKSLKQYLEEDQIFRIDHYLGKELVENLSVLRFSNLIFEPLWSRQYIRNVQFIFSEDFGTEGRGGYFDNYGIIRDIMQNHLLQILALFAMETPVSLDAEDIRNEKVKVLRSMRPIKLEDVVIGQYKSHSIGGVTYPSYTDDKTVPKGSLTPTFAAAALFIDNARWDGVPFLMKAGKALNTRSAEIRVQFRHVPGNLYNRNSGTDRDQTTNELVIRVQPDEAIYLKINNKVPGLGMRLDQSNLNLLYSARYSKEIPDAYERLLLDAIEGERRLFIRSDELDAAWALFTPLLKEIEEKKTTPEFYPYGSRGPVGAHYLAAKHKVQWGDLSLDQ
In words: spectrophotometric NADPH formation assay. Type of data set: biochemical.

For data set [3], the target named is T3, AtG6PDH1 (Arabidopsis thaliana, UniProt Q43727).
T3 sequence (Q43727 1-576 limits assumed): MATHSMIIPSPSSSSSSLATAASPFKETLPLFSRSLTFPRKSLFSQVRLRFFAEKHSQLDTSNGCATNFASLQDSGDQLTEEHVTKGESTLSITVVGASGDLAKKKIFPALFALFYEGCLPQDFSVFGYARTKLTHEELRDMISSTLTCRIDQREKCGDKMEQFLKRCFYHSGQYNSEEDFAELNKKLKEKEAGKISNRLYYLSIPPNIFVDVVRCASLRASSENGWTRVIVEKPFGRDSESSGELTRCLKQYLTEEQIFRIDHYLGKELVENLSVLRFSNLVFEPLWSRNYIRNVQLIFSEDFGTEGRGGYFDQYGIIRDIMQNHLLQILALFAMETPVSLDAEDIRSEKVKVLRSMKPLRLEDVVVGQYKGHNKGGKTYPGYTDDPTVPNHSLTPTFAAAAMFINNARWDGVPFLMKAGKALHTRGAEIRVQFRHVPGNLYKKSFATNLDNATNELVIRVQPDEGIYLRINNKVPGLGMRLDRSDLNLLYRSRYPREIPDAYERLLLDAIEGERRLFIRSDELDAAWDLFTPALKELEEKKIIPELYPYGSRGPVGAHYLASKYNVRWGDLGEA
In words: spectrophotometric NADPH formation assay. Type of data set: biochemical.

The target in data set [4] is T3, AtG6PDH1. The data set can be described thus: spectrophotometric NADPH formation assay. Type of data set: biochemical. The following applies: substrate inhibition; 0.6 mM NADP+; 150 mM Hepes pH 7.2.
The target of data set [5] is T2, AtG6PDH3. The data set can be described thus: spectrophotometric NADPH formation assay. Type of data set: biochemical. As to conditions: substrate inhibition; 0.6 mM NADP+; 150 mM Hepes pH 7.2.
In data set [6] the target is T1, AtG6PDH2. The data set can be described thus: spectrophotometric NADPH formation assay. Type of data set: biochemical. The following applies: substrate inhibition; 0.6 mM NADP+; 150 mM Hepes pH 7.2.
The target of data set [7] is T4, cytosolic AtPGI (Arabidopsis thaliana, UniProt P34795).
T4 sequence (P34795 1-560): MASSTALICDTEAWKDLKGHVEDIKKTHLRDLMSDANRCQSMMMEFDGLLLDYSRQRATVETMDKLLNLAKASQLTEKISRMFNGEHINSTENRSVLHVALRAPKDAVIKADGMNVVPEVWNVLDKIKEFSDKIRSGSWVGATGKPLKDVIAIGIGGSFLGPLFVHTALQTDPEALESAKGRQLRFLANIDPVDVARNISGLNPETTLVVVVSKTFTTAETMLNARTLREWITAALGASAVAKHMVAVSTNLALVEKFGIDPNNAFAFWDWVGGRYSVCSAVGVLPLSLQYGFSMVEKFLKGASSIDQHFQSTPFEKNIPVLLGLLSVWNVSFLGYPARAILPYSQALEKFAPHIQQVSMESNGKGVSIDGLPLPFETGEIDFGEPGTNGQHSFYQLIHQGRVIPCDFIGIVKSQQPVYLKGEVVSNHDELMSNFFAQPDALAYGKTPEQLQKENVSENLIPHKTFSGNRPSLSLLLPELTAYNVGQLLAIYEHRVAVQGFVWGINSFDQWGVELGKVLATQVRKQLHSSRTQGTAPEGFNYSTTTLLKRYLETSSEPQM
The data set can be described thus: coupled spectrophotometric assay. Type of data set: biochemical.

Data set [8] deals with T5, plastidic AtPGI (Arabidopsis thaliana, UniProt Q8H103).
T5 sequence (Q8H103 49-613): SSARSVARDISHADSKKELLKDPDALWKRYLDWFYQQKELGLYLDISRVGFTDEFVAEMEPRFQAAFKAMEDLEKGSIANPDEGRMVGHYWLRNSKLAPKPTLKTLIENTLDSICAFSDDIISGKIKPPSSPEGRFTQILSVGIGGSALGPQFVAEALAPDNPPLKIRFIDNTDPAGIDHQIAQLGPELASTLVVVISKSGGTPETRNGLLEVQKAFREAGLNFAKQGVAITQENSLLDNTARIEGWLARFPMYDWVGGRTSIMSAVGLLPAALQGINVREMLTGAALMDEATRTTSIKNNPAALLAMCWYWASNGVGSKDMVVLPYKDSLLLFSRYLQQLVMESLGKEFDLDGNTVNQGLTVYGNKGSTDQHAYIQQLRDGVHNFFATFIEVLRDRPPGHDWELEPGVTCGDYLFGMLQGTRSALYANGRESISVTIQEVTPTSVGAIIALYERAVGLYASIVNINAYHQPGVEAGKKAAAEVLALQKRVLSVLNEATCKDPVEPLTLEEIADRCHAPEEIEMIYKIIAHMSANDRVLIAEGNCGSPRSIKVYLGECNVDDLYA
In words: coupled spectrophotometric assay. Type of data set: biochemical.

In data set [9] the target is T5, plastidic AtPGI. In words: biochemical.
Data set [10] has as its target T4, cytosolic AtPGI. In words: biochemical.
Substrate in the data set “purified protein”: NC(=O)c1ccc[n+]([C@@H]2O[C@H](COP(=O)(O)OP(=O)(O)OC[C@H]3O[C@@H](n4cnc5c(N)ncnc54)[C@H](OP(=O)(O)O)[C@@H]3O)[C@@H](O)[C@H]2O)c1
The data set can be described thus: purified protein. As to conditions: 150 mM Hepes pH 7.2, varied: cofactor.

Regarding `NC(=O)C1=CN([C@@H]2O[C@H](COP(=O)(O)OP(=O)(O)OC[C@H]3O[C@@H](n4cnc5c(N)ncnc54)[C@H](OP(=O)(O)O)[C@@H]3O)[C@@H](O)[C@H]2O)C=CC1` [NADPH], the values for the Ki on AtG6PDH2 [1], on AtG6PDH3 [2] and on AtG6PDH1 [3] were 0.9 µM, 112 µM and 59 µM, respectively.
`O=P(O)(O)OC[C@H]1OC(O)[C@H](O)[C@@H](O)[C@@H]1O` (stereo partly shown) [glucose 6-phosphate]: the “G6P Ki” value was determined as 18900 µM at AtG6PDH1 [4], 37000 µM at AtG6PDH3 [5] and 30000 µM at AtG6PDH2 [6].
On to `O=C[C@H](O)[C@H](O)COP(=O)(O)O` [erythrose 4-phosphate], for which the Ki (in general, a dissociation constant, usually derived from enzyme kinetics or from competition with a known ligand) at cytosolic AtPGI [7] came to 1.5 µM; at plastidic AtPGI [8] it was 2.3 µM; on plastidic AtPGI [9], 6 µM; on cytosolic AtPGI [10] it was 3.7 µM.
For `O=C(O)[C@H](O)[C@@H](O)[C@H](O)[C@H](O)COP(=O)(O)O` [6-phosphogluconic acid], the values for the Ki on cytosolic AtPGI [7], on plastidic AtPGI [8] and on cytosolic AtPGI [10] were 106 µM, 31 µM and 44 µM, respectively.

B1: AtG6PDH3 (Arabidopsis thaliana) (protein)
chain: MSSLSCPTYRSRTSSSSPFLSNHHHSSLINVVDPRRSLSFHYASPQGLNLAELCVVRSQRRSVQSSVVVQDGSVATESSSSEEAKDVGVLTIPSLEADKVVAESDGGEQLSTVSITVVGASGDLAKKKIFPALFALYYEGCLPEHFTIFGYARSKMTDAELRVMVSKTLTCRIDKRANCGEKMEEFLKRCFYHSGQYDSQEHFVALDEKLKEHEGGRLSNRLFYLSIPPNIFVDAVKCASSSASSVNGWTRVIVEKPFGRDSKTSAALTKSLKQYLEEDQIFRIDHYLGKELVENLSVLRFSNLIFEPLWSRQYIRNVQFIFSEDFGTEGRGGYFDNYGIIRDIMQNHLLQILALFAMETPVSLDAEDIRNEKVKVLRSMRPIKLEDVVIGQYKSHSIGGVTYPSYTDDKTVPKGSLTPTFAAAALFIDNARWDGVPFLMKAGKALNTRSAEIRVQFRHVPGNLYNRNSGTDRDQTTNELVIRVQPDEAIYLKINNKVPGLGMRLDQSNLNLLYSARYSKEIPDAYERLLLDAIEGERRLFIRSDELDAAWALFTPLLKEIEEKKTTPEFYPYGSRGPVGAHYLAAKHKVQWGDLSLDQ
Consider B1, for which, in the data set “purified protein” (7.6 mM G6P), the Km (usually the substrate concentration at which the rate is half of its maximum) came to 0.6 µM and the kcat (commonly the maximal rate divided by the concentration of active sites) was 14.6 s⁻¹.

B2: AtG6PDH2 (Arabidopsis thaliana) (protein)
chain: MAALSSSVTTRSYHSGYLASFSPVNGDRHRSLSFLSASPQGLNPLDLCVRFQRKSGRASVFMQDGAIVTNSNSSESKTSLKGLKDEVLSALSQEAAKVGVESDGQSQSTVSITVVGASGDLAKKKIFPALFALYYEGCLPEHFTIFGYSRSKMTDVELRNMVSKTLTCRIDKRANCGEKMEEFLKRCFYHSGQYDSQEHFTELDKKLKEHEAGRISNRLFYLSIPPNIFVDAVKCASTSASSVNGWTRVIVEKPFGRDSETSAALTKSLKQYLEEDQIFRIDHYLGKELVENLSVLRFSNLIFEPLWSRQYIRNVQFIFSEDFGTEGRGGYFDNYGIIRDIMQNHLLQILALFAMETPVSLDAEDIRNEKVKVLRSMRPIRVEDVVIGQYKSHTKGGVTYPAYTDDKTVPKGSLTPTFAAAALFIDNARWDGVPFLMKAGKALHTRSAEIRVQFRHVPGNLYNRNTGSDLDQATNELVIRVQPDEAIYLKINNKVPGLGMRLDRSNLNLLYSARYSKEIPDAYERLLLDAIEGERRLFIRSDELDAAWSLFTPLLKEIEEKKRIPEYYPYGSRGPVGAHYLAAKHKVQWGDVSIDQ
Regarding B2, in the data set “purified protein” (15.4 mM G6P), the Km is reported as 1.3 µM and the kcat is 39.4 s⁻¹.

B3: AtG6PDH1 (Arabidopsis thaliana) (protein)
chain: MATHSMIIPSPSSSSSSLATAASPFKETLPLFSRSLTFPRKSLFSQVRLRFFAEKHSQLDTSNGCATNFASLQDSGDQLTEEHVTKGESTLSITVVGASGDLAKKKIFPALFALFYEGCLPQDFSVFGYARTKLTHEELRDMISSTLTCRIDQREKCGDKMEQFLKRCFYHSGQYNSEEDFAELNKKLKEKEAGKISNRLYYLSIPPNIFVDVVRCASLRASSENGWTRVIVEKPFGRDSESSGELTRCLKQYLTEEQIFRIDHYLGKELVENLSVLRFSNLVFEPLWSRNYIRNVQLIFSEDFGTEGRGGYFDQYGIIRDIMQNHLLQILALFAMETPVSLDAEDIRSEKVKVLRSMKPLRLEDVVVGQYKGHNKGGKTYPGYTDDPTVPNHSLTPTFAAAAMFINNARWDGVPFLMKAGKALHTRGAEIRVQFRHVPGNLYKKSFATNLDNATNELVIRVQPDEGIYLRINNKVPGLGMRLDRSDLNLLYRSRYPREIPDAYERLLLDAIEGERRLFIRSDELDAAWDLFTPALKELEEKKIIPELYPYGSRGPVGAHYLASKYNVRWGDLGEA
B3: in the data set “purified protein” (7.6 mM G6P), the Km is recorded as 0.7 µM and the kcat was determined as 57.0 s⁻¹.
